Assay results from EPA's ToxValDB 9.5.

Test system: Rattus norvegicus
Settings: short-term, duration: 28 days, oral, gavage, Sprague-Dawley

Compound: O=C(O)C(F)(F)C(F)(F)C(F)(F)C(F)(F)C(F)(F)F [Perfluorohexanoic acid]
- LOEL (F, Clinical chemistry_Alanine aminotransferase): 500 mg/kg-day
- NOEL (F, Clinical chemistry_Albumin): 1000 mg/kg-day
- LOEL (F, Clinical chemistry_Albumin/globulin ratio): 1000 mg/kg-day
- LOEL (F, Clinical chemistry_Alkaline phosphatase): 1000 mg/kg-day
- LOEL (F, Clinical chemistry_Aspartate aminotransferase): 500 mg/kg-day
- NOEL (F, Clinical chemistry_Cholesterol): 1000 mg/kg-day
- NOEL (F, Clinical chemistry_Creatinine kinase): 1000 mg/kg-day
- NOEL (F, Clinical chemistry_Direct bilirubin): 1000 mg/kg-day
- NOEL (F, Clinical chemistry_Free thyroxine): 1000 mg/kg-day
- LOEL (F, Clinical chemistry_Globulin): 1000 mg/kg-day
- NOEL (F, Clinical chemistry_Indirect bilirubin): 1000 mg/kg-day
- NOEL (F, Clinical chemistry_Sorbitol dehydrogenase): 1000 mg/kg-day
- NOEL (F, Clinical chemistry_Testosterone): 1000 mg/kg-day
- NOEL (F, Clinical chemistry_Thyroid stimulating hormone): 1000 mg/kg-day
- LOEL (F, Clinical chemistry_Total bile acids): 1000 mg/kg-day
- LOEL (F, Clinical chemistry_Total protein): 1000 mg/kg-day
- NOEL (F, Clinical chemistry_Total thyroxine): 1000 mg/kg-day
- NOEL (F, Clinical chemistry_Total triiodothyronine): 1000 mg/kg-day
- NOEL (F, Clinical chemistry_Triglycerides): 1000 mg/kg-day
- LOEL (F, Gene expression_Acox1): 500 mg/kg-day
- LOEL (F, Gene expression_Cyp2b1): 62.6 mg/kg-day
- LOEL (F, Gene expression_Cyp2b2): 62.6 mg/kg-day
- LOEL (F, Gene expression_Cyp4a1): 500 mg/kg-day
- LOEL (F, Hematology_Erythrocytes): 250 mg/kg-day
- LOEL (F, Hematology_Hematocrit): 250 mg/kg-day
- LOEL (F, Hematology_Hemoglobin): 250 mg/kg-day
- LOEL (F, Hematology_Mean corpuscular hemoglobin concentration): 1000 mg/kg-day
- LOEL (F, Hematology_Mean corpuscular volume): 500 mg/kg-day
- LOEL (F, Hematology_Platelets): 1000 mg/kg-day
- LOEL (F, Hematology_Reticulocytes): 500 mg/kg-day
- NOEL (F, Nonneoplastic effects_Bone marrow - Hypocellularity): 1000 mg/kg-day
- NOEL (F, Nonneoplastic effects_Forestomach - Epithelium, hyperplasia): 1000 mg/kg-day
- NOEL (F, Nonneoplastic effects_Forestomach - Inflammation, chronic active): 1000 mg/kg-day
- LOEL (F, Nonneoplastic effects_Kidney - Nephropathy, chronic progressive): 1000 mg/kg-day
- NOEL (F, Nonneoplastic effects_Liver - Hepatocyte, Necrosis): 1000 mg/kg-day
- LOEL (F, Nonneoplastic effects_Liver - Hepatocyte, cytoplasmic alteration): 1000 mg/kg-day
- LOEL (F, Nonneoplastic effects_Liver - Hepatocyte, hypertrophy): 1000 mg/kg-day
- NOEL (F, Nonneoplastic effects_Liver - Hepatocyte, vacuolization cytoplasmic): 1000 mg/kg-day
- NOEL (F, Nonneoplastic effects_Lymph nodes - Mandibular, atrophy): 1000 mg/kg-day
- NOEL (F, Nonneoplastic effects_Lymph nodes - Mesenteric, atrophy): 1000 mg/kg-day
- LOEL (F, Nonneoplastic effects_Nose - Olfactory epithelium, degeneration): 250 mg/kg-day
- LOEL (F, Nonneoplastic effects_Nose - Olfactory epithelium, hyperplasia): 250 mg/kg-day
- LOEL (F, Nonneoplastic effects_Nose - Olfactory epithelium, inflammation, suppurative): 500 mg/kg-day
- NOEL (F, Nonneoplastic effects_Nose - Respiratory epithelium, hyperplasia): 1000 mg/kg-day
- NOEL (F, Nonneoplastic effects_Nose - Respiratory epithelium, inflammation, chronic active): 1000 mg/kg-day
- NOEL (F, Nonneoplastic effects_Spleen - Atrophy): 1000 mg/kg-day
- LOEL (F, Nonneoplastic effects_Spleen - Extramedullary hematopoiesis, increased): 1000 mg/kg-day
- NOEL (F, Nonneoplastic effects_Thymus - Atrophy): 1000 mg/kg-day
- NOEL (F, Nonneoplastic effects_Thymus - Lymphocyte, apoptosis): 1000 mg/kg-day
- NOEL (F, Nonneoplastic effects_Thyroid gland - Follicular cell hypertrophy): 1000 mg/kg-day
- LOEL (F, Organ weights_Liver - Absolute): 500 mg/kg-day
- LOEL (F, Organ weights_Liver - Relative): 500 mg/kg-day
- NOEL (F, Organ weights_R. adrenal gland - Absolute): 1000 mg/kg-day
- NOEL (F, Organ weights_R. adrenal gland - Relative): 1000 mg/kg-day
- LOEL (F, Organ weights_R. kidney - Absolute): 1000 mg/kg-day
- LOEL (F, Organ weights_R. kidney - Relative): 1000 mg/kg-day
- NOEL (F, Organ weights_Spleen - Absolute): 1000 mg/kg-day
- NOEL (F, Organ weights_Spleen - Relative): 1000 mg/kg-day
- NOEL (F, Organ weights_Thymus - Absolute): 1000 mg/kg-day
- NOEL (F, Organ weights_Thymus - Relative): 1000 mg/kg-day
- NOEL (F, Organ weights_Thyroid gland - Absolute): 1000 mg/kg-day
- NOEL (F, Organ weights_Thyroid gland - Relative): 1000 mg/kg-day
- NOEL (F, Survival rates): 1000 mg/kg-day
- NOEL (F, body weight): 1000 mg/kg-day
- LOEL (M, Clinical chemistry_Alanine aminotransferase): 500 mg/kg-day
- LOEL (M, Clinical chemistry_Albumin): 125 mg/kg-day
- LOEL (M, Clinical chemistry_Albumin/globulin ratio): 250 mg/kg-day
- LOEL (M, Clinical chemistry_Alkaline phosphatase): 500 mg/kg-day
- LOEL (M, Clinical chemistry_Aspartate aminotransferase): 500 mg/kg-day
- LOEL (M, Clinical chemistry_Cholesterol): 62.6 mg/kg-day
- NOEL (M, Clinical chemistry_Creatinine kinase): 1000 mg/kg-day
- NOEL (M, Clinical chemistry_Direct bilirubin): 1000 mg/kg-day
- LOEL (M, Clinical chemistry_Free thyroxine): 62.6 mg/kg-day
- LOEL (M, Clinical chemistry_Globulin): 125 mg/kg-day
- LOEL (M, Clinical chemistry_Sorbitol dehydrogenase): 1000 mg/kg-day
- NOEL (M, Clinical chemistry_Testosterone): 1000 mg/kg-day
- NOEL (M, Clinical chemistry_Thyroid stimulating hormone): 1000 mg/kg-day
- LOEL (M, Clinical chemistry_Total bile acids): 1000 mg/kg-day
- LOEL (M, Clinical chemistry_Total protein): 250 mg/kg-day
- LOEL (M, Clinical chemistry_Total thyroxine): 62.6 mg/kg-day
- LOEL (M, Clinical chemistry_Total_triiodothyronine): 62.6 mg/kg-day
- NOEL (M, Clinical chemistry_Triglycerides): 1000 mg/kg-day
- LOEL (M, Gene expression_Acox1): 500 mg/kg-day
- LOEL (M, Gene expression_Acyl-CoA oxidase): 250 mg/kg-day
- LOEL (M, Gene expression_Cyp2b1): 62.6 mg/kg-day
- LOEL (M, Gene expression_Cyp2b2): 62.6 mg/kg-day
- LOEL (M, Gene expression_Cyp4a1): 62.6 mg/kg-day
- LOEL (M, Hematology_Erythrocytes): 62.6 mg/kg-day
- LOEL (M, Hematology_Hematocrit): 62.6 mg/kg-day
- LOEL (M, Hematology_Hemoglobin): 62.6 mg/kg-day
- LOEL (M, Hematology_Mean corpuscular hemoglobin concentration): 1000 mg/kg-day
- LOEL (M, Hematology_Mean corpuscular volume): 250 mg/kg-day
- LOEL (M, Hematology_Platelets): 500 mg/kg-day
- LOEL (M, Hematology_Reticulocytes): 500 mg/kg-day
- NOEL (M, Nonneoplastic effects_Bone marrow - Hypocellularity): 1000 mg/kg-day
- NOEL (M, Nonneoplastic effects_Epididymis - Duct, exfoliated germ cell): 1000 mg/kg-day
- NOEL (M, Nonneoplastic effects_Epididymis - Epithelium, apoptosis): 1000 mg/kg-day
- NOEL (M, Nonneoplastic effects_Epididymis - Hypospermia): 1000 mg/kg-day
- NOEL (M, Nonneoplastic effects_Forestomach - Epithelium, hyperplasia): 1000 mg/kg-day
- NOEL (M, Nonneoplastic effects_Forestomach - Inflammation, chronic active): 1000 mg/kg-day
- NOEL (M, Nonneoplastic effects_Kidney - Nephropathy, chronic progressive): 1000 mg/kg-day
- NOEL (M, Nonneoplastic effects_Liver - Hepatocyte, Necrosis): 1000 mg/kg-day
- LOEL (M, Nonneoplastic effects_Liver - Hepatocyte, cytoplasmic alteration): 1000 mg/kg-day
- LOEL (M, Nonneoplastic effects_Liver - Hepatocyte, hypertrophy): 500 mg/kg-day
- NOEL (M, Nonneoplastic effects_Liver - Hepatocyte, vacuolization cytoplasmic): 1000 mg/kg-day
- NOEL (M, Nonneoplastic effects_Lymph nodes - Mandibular, atrophy): 1000 mg/kg-day
- NOEL (M, Nonneoplastic effects_Lymph nodes - Mesenteric, atrophy): 1000 mg/kg-day
- LOEL (M, Nonneoplastic effects_Nose - Olfactory epithelium, degeneration): 250 mg/kg-day
- LOEL (M, Nonneoplastic effects_Nose - Olfactory epithelium, hyperplasia): 250 mg/kg-day
- LOEL (M, Nonneoplastic effects_Nose - Olfactory epithelium, inflammation, suppurative): 1000 mg/kg-day
- NOEL (M, Nonneoplastic effects_Nose - Respiratory epithelium, hyperplasia): 1000 mg/kg-day
- NOEL (M, Nonneoplastic effects_Nose - Respiratory epithelium, inflammation, chronic active): 1000 mg/kg-day
- NOEL (M, Nonneoplastic effects_Spleen - Atrophy): 1000 mg/kg-day
- LOEL (M, Nonneoplastic effects_Spleen - Extramedullary hematopoiesis, increased): 500 mg/kg-day
- NOEL (M, Nonneoplastic effects_Testes - Germinal epithelium, degeneration): 1000 mg/kg-day
- NOEL (M, Nonneoplastic effects_Testes - Interstitial cell, atrophy): 1000 mg/kg-day
- NOEL (M, Nonneoplastic effects_Testes - Seminiferous tubule, spermatid retention): 1000 mg/kg-day
- NOEL (M, Nonneoplastic effects_Thymus - Atrophy): 1000 mg/kg-day
- NOEL (M, Nonneoplastic effects_Thymus - Lymphocyte, apoptosis): 1000 mg/kg-day
- NOEL (M, Nonneoplastic effects_Thyroid gland - Follicular cell hypertrophy): 1000 mg/kg-day
- LOEL (M, Organ weights_Liver - Absolute): 500 mg/kg-day
- LOEL (M, Organ weights_Liver - Relative): 250 mg/kg-day
- NOEL (M, Organ weights_R. adrenal gland - Absolute): 1000 mg/kg-day
- NOEL (M, Organ weights_R. adrenal gland - Relative): 1000 mg/kg-day
- NOEL (M, Organ weights_R. kidney - Absolute): 1000 mg/kg-day
- LOEL (M, Organ weights_R. kidney - Relative): 500 mg/kg-day
- NOEL (M, Organ weights_R. testis - Absolute): 1000 mg/kg-day
- NOEL (M, Organ weights_Spleen - Absolute): 1000 mg/kg-day
- NOEL (M, Organ weights_Spleen - Relative): 1000 mg/kg-day
- LOEL (M, Organ weights_Thymus - Absolute): 1000 mg/kg-day
- NOEL (M, Organ weights_Thymus - Relative): 1000 mg/kg-day
- NOEL (M, Organ weights_Thyroid gland - Absolute): 1000 mg/kg-day
- NOEL (M, Organ weights_Thyroid gland - Relative): 1000 mg/kg-day
- LOEL (M, Reproductive toxicity_Altered sperm parameters): 1000 mg/kg-day
- NOEL (M, Survival rates): 1000 mg/kg-day
- LOEL (M, body weight): 1000 mg/kg-day
